{"source": "paper PMC10675340", "about": "“Preparation, Radiolabeling with ^68Ga/^177Lu and Preclinical Evaluation of Novel Angiotensin Peptide Analog: A New Class of Peptides for Breast Cancer Targeting” (Pharmaceuticals, 2023)", "assay": "In vivo tumor targeting and biodistribution in nude mice bearing MDA-MB-231 xenografts", "set-up": "species or system mouse", "conditions": "mouse, total radioactivity", "method": "(with 43% wash away from the tumors over 2 h). The amount of radioactivity found for the ^68Ga-labeled AngII peptide analog in the tumors was always more than the radioactivity detected in the blood and muscle. A general pattern of better tumor-to-blood and tumor-to-muscle uptake ratios was noticed over time for ^68Ga-labeled AngII peptide.\nIn vivo, tumor uptake was conducted as reported previously. In summary, ~5 million MDA-MB-231 cells in 200 µL sterile PBS were implanted subcutaneously into each nude mouse. Once tumor growth became sufficient (~50–500 mg), tumor uptake and organ biodistribution were carried out after injecting the radiolabeled AngII peptide. The percent of the injected dose per gram in the tumors was determined by using a custom-designed Quattro Pro X9 spreadsheet (Corel Corporation, Austin, TX, USA).", "note": "Like-named read-outs stand apart in the source and are kept apart here. Where a SMILES comes first, the peptide text is derived from it. [ ]: non-standard residue; d: D form. The star is where a group is joined. DOTA = O=C(O)CN1CCN(CC(=O)O)CCN(CC(=O)*)CCN(CC(=O)O)CC1; βAla = NCCC(=O)O", "data": [{"smiles": "CC[C@H](C)[C@H](NC(=O)[C@H](Cc1ccc(O)cc1)NC(=O)[C@@H](NC(=O)[C@H](CCCNC(=N)N)NC(=O)[C@H](CC(=O)O)NC(=O)CCNC(=O)[C@H](CCCCN)NC(=O)CN1CCN(CC(=O)O)CCN(CC(=O)O)CCN(CC(=O)O)CC1)C(C)C)C(=O)N[C@@H](Cc1c[nH]cn1)C(=O)N1CCC[C@H]1C(=O)N[C@@H](Cc1ccccc1)C(=O)N[C@@H](Cc1c[nH]c2ccccc12)C(=O)N[C@@H](CCCCN)C(=O)N[C@@H](Cc1ccc(O)cc1)C(N)=O", "note": "[^68Ga-DOTA-AngII peptide, metal not drawn] ({DOTA}-K[βAla]DRVYIHPFWKY-NH2)", "values": [{"measurement": "tissue uptake at 0.75 h", "setting": "blood, nude mice with MDA-MB-231 xenografts, 45 min p.i., mean ± SD, n = 4-6, read-out: Blood uptake", "result": "0.55 ± 0.12", "unit": "%ID/g"}, {"measurement": "tissue uptake at 2 h", "setting": "blood, nude mice with MDA-MB-231 xenografts, 2 h p.i., mean ± SD, n = 4-6, read-out: Blood uptake", "result": "0.22 ± 0.1", "unit": "%ID/g"}, {"measurement": "tissue uptake at 0.75 h", "setting": "heart, nude mice with MDA-MB-231 xenografts, 45 min p.i., mean ± SD, n = 4-6, read-out: Heart uptake", "result": "0.88 ± 0.3", "unit": "%ID/g"}, {"measurement": "tissue uptake at 2 h", "setting": "heart, nude mice with MDA-MB-231 xenografts, 2 h p.i., mean ± SD, n = 4-6, read-out: Heart uptake", "result": "0.65 ± 0.19", "unit": "%ID/g"}, {"measurement": "tissue uptake at 0.75 h", "setting": "intestines without contents, nude mice with MDA-MB-231 xenografts, 45 min p.i., mean ± SD, n = 4-6, read-out: Intestines uptake (portion without contents)", "result": "1.2 ± 0.35", "unit": "%ID/g"}, {"measurement": "tissue uptake at 2 h", "setting": "intestines without contents, nude mice with MDA-MB-231 xenografts, 2 h p.i., mean ± SD, n = 4-6, read-out: Intestines uptake (portion without contents)", "result": "1.05 ± 0.31", "unit": "%ID/g"}, {"measurement": "tissue uptake at 0.75 h", "setting": "kidneys, nude mice with MDA-MB-231 xenografts, 45 min p.i., mean ± SD, n = 4-6, read-out: Kidneys uptake", "result": "4.89 ± 1.97", "unit": "%ID/g"}, {"measurement": "tissue uptake at 2 h", "setting": "kidneys, nude mice with MDA-MB-231 xenografts, 2 h p.i., mean ± SD, n = 4-6, read-out: Kidneys uptake", "result": "3.97 ± 1.2", "unit": "%ID/g"}, {"measurement": "tissue uptake at 0.75 h", "setting": "liver, nude mice with MDA-MB-231 xenografts, 45 min p.i., mean ± SD, n = 4-6, read-out: Liver uptake", "result": "0.77 ± 0.22", "unit": "%ID/g"}, {"measurement": "tissue uptake at 2 h", "setting": "liver, nude mice with MDA-MB-231 xenografts, 2 h p.i., mean ± SD, n = 4-6, read-out: Liver uptake", "result": "0.65 ± 0.28", "unit": "%ID/g"}, {"measurement": "tissue uptake at 0.75 h", "setting": "lungs, nude mice with MDA-MB-231 xenografts, 45 min p.i., mean ± SD, n = 4-6, read-out: Lungs uptake", "result": "0.57 ± 0.16", "unit": "%ID/g"}, {"measurement": "tissue uptake at 2 h", "setting": "lungs, nude mice with MDA-MB-231 xenografts, 2 h p.i., mean ± SD, n = 4-6, read-out: Lungs uptake", "result": "0.39 ± 0.15", "unit": "%ID/g"}, {"measurement": "tissue uptake at 0.75 h", "setting": "muscle/bone, nude mice with MDA-MB-231 xenografts, 45 min p.i., mean ± SD, n = 4-6, read-out: Muscle/bone uptake", "result": "0.4 ± 0.17", "unit": "%ID/g"}, {"measurement": "tissue uptake at 2 h", "setting": "muscle/bone, nude mice with MDA-MB-231 xenografts, 2 h p.i., mean ± SD, n = 4-6, read-out: Muscle/bone uptake", "result": "0.19 ± 0.1", "unit": "%ID/g"}, {"measurement": "tissue uptake at 0.75 h", "setting": "pancreas, nude mice with MDA-MB-231 xenografts, 45 min p.i., mean ± SD, n = 4-6, read-out: Pancreas uptake", "result": "0.47 ± 0.11", "unit": "%ID/g"}, {"measurement": "tissue uptake at 2 h", "setting": "pancreas, nude mice with MDA-MB-231 xenografts, 2 h p.i., mean ± SD, n = 4-6, read-out: Pancreas uptake", "result": "0.29 ± 0.05", "unit": "%ID/g"}, {"measurement": "tissue uptake at 0.75 h", "setting": "spleen, nude mice with MDA-MB-231 xenografts, 45 min p.i., mean ± SD, n = 4-6, read-out: Spleen uptake", "result": "0.39 ± 0.08", "unit": "%ID/g"}, {"measurement": "tissue uptake at 2 h", "setting": "spleen, nude mice with MDA-MB-231 xenografts, 2 h p.i., mean ± SD, n = 4-6, read-out: Spleen uptake", "result": "0.24 ± 0.05", "unit": "%ID/g"}, {"measurement": "tissue uptake at 0.75 h", "setting": "stomach, nude mice with MDA-MB-231 xenografts, 45 min p.i., mean ± SD, n = 4-6, read-out: Stomach uptake", "result": "0.34 ± 0.1", "unit": "%ID/g"}, {"measurement": "tissue uptake at 2 h", "setting": "stomach, nude mice with MDA-MB-231 xenografts, 2 h p.i., mean ± SD, n = 4-6, read-out: Stomach uptake", "result": "0.3 ± 0.08", "unit": "%ID/g"}, {"measurement": "tissue uptake at 0.75 h", "setting": "tumor (MDA-MB-231 xenograft), MDA-MB-231 tumor in nude mice, 45 min p.i., mean ± SD, n = 4-6, read-out: Tumor uptake", "result": "2.18 ± 0.66", "unit": "%ID/g"}, {"measurement": "tissue uptake at 2 h", "setting": "tumor (MDA-MB-231 xenograft), MDA-MB-231 tumor in nude mice, 2 h p.i., unblocked, mean ± SD, n = 4-6, read-out: Tumor uptake", "result": "1.25 ± 0.37", "unit": "%ID/g"}, {"measurement": "tissue to tissue ratio at 2 h", "setting": "tumor / muscle, nude mice with MDA-MB-231 xenografts, 2 h p.i., read-out: Tumor/muscle uptake ratio", "result": 6.58}, {"measurement": "tissue to tissue ratio at 0.75 h", "setting": "tumor/blood, nude mice with MDA-MB-231 xenografts, 45 min p.i., read-out: Tumor/blood uptake ratio", "result": 3.96}, {"measurement": "tissue to tissue ratio at 2 h", "setting": "tumor/blood, nude mice with MDA-MB-231 xenografts, 2 h p.i., read-out: Tumor/blood uptake ratio", "result": 5.68}, {"measurement": "tissue to tissue ratio at 0.75 h", "setting": "tumor/muscle, nude mice with MDA-MB-231 xenografts, 45 min p.i., read-out: Tumor/muscle uptake ratio", "result": 5.45}, {"measurement": "dose excreted at 0.75 h", "setting": "urine with bladder contents, nude mice with MDA-MB-231 xenografts, 45 min p.i., mean ± SD, n = 4-6, read-out: Urine + Bladder (urinary excretion)", "result": "49.9 ± 10.9", "unit": "%"}, {"measurement": "dose excreted at 2 h", "setting": "urine with bladder contents, nude mice with MDA-MB-231 xenografts, 2 h p.i., mean ± SD, n = 4-6, read-out: Urine + Bladder (urinary excretion)", "result": "55 ± 8.79", "unit": "%"}]}]}
